The values that follow come from patent publication US9750748B2, “Pyridazinones as DAAO enzyme inhibitors” (TAKEDA PHARMACEUTICAL COMPANY LIMITED, priority 2012, dated 2017).

pIC50: −log10 of the molar value.

Chain of Human DAAO enzyme (P14920 whole entry): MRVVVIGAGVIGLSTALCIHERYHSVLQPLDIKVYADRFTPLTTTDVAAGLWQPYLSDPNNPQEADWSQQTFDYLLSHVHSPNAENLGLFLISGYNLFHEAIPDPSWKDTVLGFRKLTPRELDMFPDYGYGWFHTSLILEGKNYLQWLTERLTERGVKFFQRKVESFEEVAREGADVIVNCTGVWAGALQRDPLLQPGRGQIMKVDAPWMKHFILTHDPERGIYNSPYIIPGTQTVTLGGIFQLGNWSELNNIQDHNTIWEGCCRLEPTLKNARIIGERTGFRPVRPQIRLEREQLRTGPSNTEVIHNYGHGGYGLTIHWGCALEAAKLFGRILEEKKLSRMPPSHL

The assay addresses Human DAAO enzyme (Homo sapiens (Human), UniProt P14920). Kind of assay: In Vitro DAAO Enzyme Assay (Amplex Red detection of H2O2 from D-Serine). The note with it: inhibition of DAAO activity in the presence of 10 mM D-Serine; 60 minutes at 25° C. Type of assay: biochemical. Here is the method: In Vitro DAAO Enzyme Assay
The functional activity of compounds inhibiting the DAAO enzyme was determined by utilizing the co-product of the catalysis of D-Serine, H2O2, which can be quantitatively measured using the ‘Amplex’ (trade mark) Red (Invitrogen) detection. ‘Amplex’ Red reagent is a colorless substrate that reacts with hydrogen peroxide (H2O2) with a 1:1 stoichiometry to produce highly fluorescent resorufin (excitation/emission maxima=570/585 nm).
The Km of D-Serine was measured for each enzyme batch to maintain consistency; this Km was used in subsequent assays.
On the day of the assay compounds were serially diluted in DMSO before being diluted 1:20 with assay buffer (20 mM Tris ph 7.4). […] Finally 5 μl ‘Amplex’ red reagent (Invitrogen) was added to all wells as per manufacturer's protocol. The plate was incubated for 60 minutes in the dark at 25° C. and the fluorescence in each well was measured in the Envision plate reader.
Concentration response curves were generated using the average of duplicate wells for each data point and analyzed using non-linear regression and four parameter curve fit.
With `CCc1cc(O)c(=O)[nH]n1` [Example 1, 6-Ethyl-4-hydroxypyridazin-3(2H)-one], the negative-log IC50 (pIC50) – broadly, the negative decadic logarithm of the IC50, by convention in mol/L – was 7.96.
For `CC(C)CCc1cc(O)c(=O)[nH]n1` [Example 2, 4-Hydroxy-6-(3-methylbutyl)pyridazin-3(2H)-one], the negative-log IC50 (pIC50) was 7.21.
Next, `O=c1[nH]nc(C2CC2)cc1O` [Example 3, 6-Cyclopropyl-4-hydroxypyridazin-3(2H)-one]: 7.40; `O=c1[nH]nc(C2CCOCC2)cc1O` [Example 4, 4-Hydroxy-6-(tetrahydro-2H-pyran-4-yl)pyridazin-3(2H)-one]: 5.39.
As to `CC(C)Cc1cc(O)c(=O)[nH]n1` [Example 5, 4-Hydroxy-6-(2-methylpropyl)pyridazin-3(2H)-one], the negative logarithm of the IC50 (pIC50) was 6.85.
On to `O=c1[nH]nc(C2CCCC2)cc1O` [Example 6, 6-Cyclopentyl-4-hydroxypyridazin-3(2H)-one], for which the negative-log IC50 (pIC50) is 6.17.
Take `O=c1[nH]nc(C2CCCCC2)cc1O` [Example 7, 6-Cyclohexyl-4-hydroxypyridazin-3(2H)-one]: the negative logarithm of the IC50 (pIC50) is 5.96.
As for `CC(C)c1cc(O)c(=O)[nH]n1` [Example 8, 4-Hydroxy-6-isopropylpyridazin-3(2H)-one], the pIC50 is 7.44.
Next, `O=c1[nH]nc(N2CCC2)cc1O` [Example 9, 6-(Azetidin-1-yl)-4-hydroxypyridazin-3(2H)-one]: 5.60; `CN(C)c1cc(O)c(=O)[nH]n1` [Example 10, 6-(Dimethylamino)-4-hydroxypyridazin-3(2H)-one]: 7.34.
In the case of `CCCN(C)c1cc(O)c(=O)[nH]n1` [Example 11, 4-Hydroxy-6-(methyl(propyl)amino)pyridazin-3(2H)-one] it was 6.74; in that of `CCN(C)c1cc(O)c(=O)[nH]n1` [Example 12, 6-(Ethyl(methyl)amino)-4-hydroxypyridazin-3(2H)-one], 6.82.
As for `O=c1[nH]nc(N2CCCCC2)cc1O` [Example 13, 4-Hydroxy-6-(piperidin-1-yl)pyridazin-3(2H)-one], the pIC50 is 5.44.
In the case of `CC(C)(C)c1cc(O)c(=O)[nH]n1` [Example 14, 6-tert-Butyl-4-hydroxypyridazin-3(2H)-one] it was 7.36.
